This is an account of results in patent publication US12624042B2, “Compound for targeted degradation of BTK and anti-tumour use thereof” (SHANGHAI MEIZER PHARMACEUTICALS CO., LTD., priority 2020, dated 2026).

Where two headings read alike, the source gives them in different places.

Data set [1] is described as follows: Caco-2 membrane permeability and efflux test. The format is in vitro ADME. Conditions: human; for Papp A→B at 90 min: Caco-2, A-B; for Papp A→B at 90 min / Papp B→A at 90 min: Caco-2 monolayer, 37° C.; for Papp B→A at 90 min: Caco-2, B-A; for efflux ratio at 90 min: Caco-2, read-out: Papp(B-A)/Papp(A-B). The method, then:
• 1) Caco-2 cells in the logarithmic growth phase were taken, digested and centrifuged and the cell concentration was adjusted to 4×10^5 cells/mL with MEM complete medium. • 2) 0.5 mL of cell suspension was added to the apical side (AP side) and 1.5 mL MEM cell complete medium was added to the basal side (BL side) of the Transwell plate, respectively. • 3) Culture in a cell constant temperature incubator, change the culture medium every two days, and change the medium every day after one week of culture. • 4) After about 21 days, the resistance value of the formed continuous monolayer film is greater than 100 Ω·cm^2, and the transport experiment is carried out within 3-5 days. • 5) The test compound solution was added to the AP side as the donor solution (Donor), and 1.5 mL of the receiver solution (Receiver) was added to the basal side (BL side). After the culture plate was placed in an incubator at 37° C. for 90 minutes, the AP side was separated from the BL side to terminate the reaction. • 6) Donor or Receiver samples were diluted with 0.4% DMSO in HBSS, and then mixed with acetonitrile. The LC conditions were as follows: mobile phase A: H2O—0.025% FA-1 mM NH4OAC, B: MeOH-0.025% FA-1 mM NH4OAC. Column: ACQUITY UPLC BEH_C18 ([…], 1.7 μm). Flow rate 0.60 mL/min. Gradient: 0.2 min 2% B, 0.6 min 98% B, 1.3 min 98% B, 1.31 min 2% B, 1.8 min stop. • 7) Calculation formula: Papp=(VA/(area×time))×([drug]receiver/([drug]donor)×dilution factor)
where VA is the volume in the receiving chamber, area is the surface area of the membrane, and time is the total transport time in seconds.
Drug molecules cross the single cell layer or via the cell gap from the apical side (AP side) to the basolateral side (BL side) of the Caco-2 monolayer are A to B, and vice versa are B to A. The efflux ratio: Papp(B−A)/Papp(A−B).
For orientation: Caco-2 cells form a polarised layer with tight junctions and transporters.

Another data set addresses T1, BTK protein (Homo sapiens, UniProt Q06187).
T1 construct: endogenous in cells; host or cells: Jeko-1
Briefly: Western blot assay for degradation of BTK protein in Jeko-1 cells. The format is cell-based. Conditions: 24 hours of drug treatment, GAPDH internal reference. Here is the method: The Jeko-1 cell line was cultured in RPMI-1640 medium containing 20% fetal bovine serum in an incubator at 37° C., 5% CO2, and saturated humidity. After the cells grew to the logarithmic growth phase, 5×10^6 cells per well were seeded in a 6-well culture plate, and a DMSO control group and a compound test group were set.
(§1) After 24 hours of drug treatment, the cells were collected, added pre-cooled cell lysate, and lysed on ice for 45 min. After the cells were completely lysed, they were centrifuged, and the supernatant was taken and stored in an ice bath. The protein concentration was determined by Bradford protein concentration assay kit (detergent compatible type), and protein samples were prepared. After the proteins were separated by SDS-PAGE gel electrophoresis, they were transferred to PVDF membranes by wet method and blocked with 5% BSA solution at room temperature for 1 h. Diluted rabbit anti-human BTK and GAPDH were added according to the experimental requirements, and incubated overnight at 4° C. After washing the membrane with TBST, horseradish peroxidase-labeled goat anti-rabbit IgG secondary antibody dilution was added and incubated at room temperature for 1 h. After washing the membrane with TBST, the ECL luminescent solution was added in the gel imager for development and imaging. […]
In general terms: Immunoblotting shows a protein as a band on a membrane.

A further data set concerns the target T2, BTK-C481S mutant protein (Homo sapiens, UniProt Q06187, C481S).
T2 construct: The TMD8 (BTK-C481S) mutant cell line was cultured in RPMI-1640 medium; endogenous in cells; host or cells: TMD8 (BTK-C481S) mutant cell line
Briefly: Western blot assay for degradation of BTK-C481S mutant protein in TMD8 (BTK-C481S) cells. The settings on record: 24 hours of drug treatment, GAPDH internal reference. The format is cell-based. Here is the method:
The TMD8 (BTK-C481S) mutant cell line was cultured in RPMI-1640 medium containing 20% fetal bovine serum in an incubator at 37° C., 5% CO2, and saturated humidity. After the cells grew to the logarithmic growth phase, 5×10^6 cells per well were seeded in a 6-well culture plate, and a DMSO control group and a compound test group were set.
as §1

The subject of data set [2] is TMD8 (BTK-C481S) mutant cells. Briefly: Proliferation inhibition of TMD8 (BTK-C481S) mutant cells (CCK-8). The format is cell-based. The settings on record: Homo sapiens. The method, then: Cell plating: TMD8 (BTK-C481S) mutant cells in the logarithmic growth phase were taken, centrifuged, and an appropriate amount of complete medium was added to obtain a single-cell suspension. Cell counting was carried out with a hemocytometer, and a cell suspension of 1.5×10^5 cells/mL was prepared. 100 μL of cell suspension per well was inoculated in a 96-well culture plate, and cultured in a CO2 cell incubator for 24 hours.
The plates were shaken well, placed in a CO2 cell incubator, and continued to incubate for 72h.
CCK-8 detection: 72 hours after administration, 10% CCK-8 solution was added to each well. The plates were placed in a CO2 cell incubator, and incubated for 1-4 hours. The absorbance of each well was measured at 450 nm using a microplate reader.

Another data set relates to OCI-LY10 tumor. Briefly: Anti-tumor effect in mouse OCI-LY10 tumor model. Conditions: SCID mice, OCI-LY10 subcutaneous, oral 100 mg/kg, twice a day, 14 days; rate=[1−(Day14−Day0)/Day0]*100%. The format is in vivo. Here is the method: OCI-LY10 cells were cultured in RPMI-1640 medium containing 10% fetal bovine serum (FBS). Cells were cultured at 37° C. in a 5% CO2 incubator.
Cell inoculation method to establish tumor SCID mouse subcutaneous transplantation model: tumor cells in logarithmic growth phase were collected, counted and resuspended in RPMI-1640 medium. Matrigel was added at 1:1, and the concentration of cell suspension was adjusted to 4×10^7 cells/ml. Inoculate tumor cells subcutaneously on the right back of SCID mice with a 1 ml syringe, 4×10^6 cells/0.1 ml/mouse
When the average volume of animal tumors is about 140 mm^3, animals with too large tumor, too small tumor, or have irregular tumor shapes were eliminated. The tumor-bearing mice with tumor volumes ranging from 101.34 to 209.86 mm 3 were selected, and were divided into groups by random block method, respectively as model group, compound group (oral 100 mg/kg, twice a day), 7 mice in each group. The day of grouping was Day 0, and administration was started according to the body weight of the animals.
After 14 days of administration, the tumor volume was measured, and the tumor inhibition rate was calculated, and the calculation formula was as follows: Tumor inhibition rate=[1−(Day14 tumor volume−Day0 administration tumor volume)/Day0 administration tumor volume]*100%

Where [3] appears, read: Sample-01, read-out: Papp Sample-01.
[4] abbreviates: Sample-02, read-out: Papp Sample-02.
[5] abbreviates: mean of two samples, read-out: Papp Mean.
[6] abbreviates: TMD8 (BTK-C481S) mutant cells, 72h, CCK-8, read-out: IC50.

T2 sequence (Q06187 whole entry C481S): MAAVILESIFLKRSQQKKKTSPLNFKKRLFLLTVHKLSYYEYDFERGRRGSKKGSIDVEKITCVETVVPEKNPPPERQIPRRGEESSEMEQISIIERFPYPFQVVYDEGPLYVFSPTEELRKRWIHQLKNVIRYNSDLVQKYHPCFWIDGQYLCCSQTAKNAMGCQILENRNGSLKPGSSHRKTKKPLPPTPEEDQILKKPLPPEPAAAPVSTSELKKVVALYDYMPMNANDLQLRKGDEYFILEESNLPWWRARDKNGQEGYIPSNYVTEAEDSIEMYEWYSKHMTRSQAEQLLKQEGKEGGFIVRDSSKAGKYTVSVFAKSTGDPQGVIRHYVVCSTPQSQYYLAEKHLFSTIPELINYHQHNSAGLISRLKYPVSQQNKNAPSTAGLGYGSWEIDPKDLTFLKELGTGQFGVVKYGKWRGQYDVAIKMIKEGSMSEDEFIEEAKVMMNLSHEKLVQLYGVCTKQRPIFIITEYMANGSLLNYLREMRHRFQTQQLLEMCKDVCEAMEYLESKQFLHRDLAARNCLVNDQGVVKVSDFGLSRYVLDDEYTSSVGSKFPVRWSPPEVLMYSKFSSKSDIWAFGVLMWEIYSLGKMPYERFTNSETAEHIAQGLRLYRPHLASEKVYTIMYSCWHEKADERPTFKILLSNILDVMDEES
T1 sequence (Q06187 whole entry): as the sequence (Q06187 whole entry C481S) above, with S481C counted along it

As to `Nc1ncnc2c1c(-c1ccc(Oc3ccccc3)cc1)nn2C1CCN(CCCCCOCCOc2ccc3c(c2)CN(C2CCC(=O)NC2=O)C3=O)CC1` (centres unmarked) [Compound 1], the Papp A→B at 90 min in data set [1] (setting [3]) came to 5.55 ×10⁻⁶ cm/s; in data set [1] (setting [4]), 5.16 ×10⁻⁶ cm/s; in data set [1] (setting [5]) it was 5.35 ×10⁻⁶ cm/s. Besides, the Papp B→A at 90 min in data set [1] (setting [3]) was determined as 7.18 ×10⁻⁶ cm/s; in data set [1] (setting [4]), 6.99 ×10⁻⁶ cm/s; in data set [1] (setting [5]), 7.09 ×10⁻⁶ cm/s. Further, the efflux ratio at 90 min in data set [1] is 1.32. For the same compound, the figures for the DC50 on BTK protein and at BTK-C481S mutant protein were 2.3 nM and 9.9 nM, respectively. Moreover, the IC50 (usually the concentration that gives 50% inhibition) in data set [2] (setting [6]) came out at 7.1 nM. The Tumor inhibition rate with OCI-LY10 tumor was determined as 175%.
On to `Nc1ncnc2c1c(-c1ccc(Oc3ccccc3)cc1)nn2C1CCN(CCOCCCCCOc2ccc3c(c2)CN(C2CCC(=O)NC2=O)C3=O)CC1` (centres unmarked) [Compound 2], for which the Papp A→B at 90 min came to 2.37 ×10⁻⁶ cm/s in data set [1] (setting [3]), 2.26 ×10⁻⁶ cm/s in data set [1] (setting [4]) and 2.32 ×10⁻⁶ cm/s in data set [1] (setting [5]). For the same compound, the Papp B→A at 90 min turned out to be 2.73 ×10⁻⁶ cm/s in data set [1] (setting [3]), 2.75 ×10⁻⁶ cm/s in data set [1] (setting [4]) and 2.74 ×10⁻⁶ cm/s in data set [1] (setting [5]). Further, the efflux ratio at 90 min in data set [1] was 1.18. Besides, the DC50 (usually the concentration at which degradation of the target reaches its halfway point) on BTK protein was found to be 1.5 nM; on BTK-C481S mutant protein it was 3.1 nM. Besides, the IC50 in data set [2] (setting [6]) came to 17.7 nM. For the same compound, the Tumor inhibition rate in the data set on OCI-LY10 tumor was 189%.
`Nc1ncnc2c1c(-c1ccc(Oc3ccccc3)cc1)nn2C1CCN(CCOCCOCCNc2ccc3c(c2)CN(C2CCC(=O)NC2=O)C3=O)CC1` (centres unmarked) [Control compound 1]: the Papp A→B at 90 min in data set [1] (setting [3]) came out at 1.07 ×10⁻⁶ cm/s; in data set [1] (setting [4]), 1.04 ×10⁻⁶ cm/s; in data set [1] (setting [5]), 1.05 ×10⁻⁶ cm/s. Also, the Papp B→A at 90 min came to 30.2 ×10⁻⁶ cm/s in data set [1] (setting [3]), 39.4 ×10⁻⁶ cm/s in data set [1] (setting [4]) and 34.8 ×10⁻⁶ cm/s in data set [1] (setting [5]). Also, in data set [1], the efflux ratio at 90 min was 33.
As for `Nc1ncnc2c1c(-c1ccc(Oc3ccccc3)cc1)nn2C1CCCN(CCOCCOCCOCCOCCNc2cccc3c2C(=O)N(C2CCC(=O)NC2=O)C3=O)C1` (centres unmarked) [Control compound 2], the Papp A→B at 90 min is 1.02 ×10⁻⁶ cm/s in data set [1] (setting [3]), 1 ×10⁻⁶ cm/s in data set [1] (setting [4]) and 1.01 ×10⁻⁶ cm/s in data set [1] (setting [5]). The Papp B→A at 90 min stood at 18.1 ×10⁻⁶ cm/s in data set [1] (setting [3]), 18.6 ×10⁻⁶ cm/s in data set [1] (setting [4]) and 18.4 ×10⁻⁶ cm/s in data set [1] (setting [5]). Further, in data set [1], the efflux ratio at 90 min was 18.1.
Regarding `Nc1ncnc2c1c(-c1ccc(Oc3ccccc3)cc1)nn2C1CCN(CCOCCOCCNc2ccc3c(c2)C(=O)N(C2CCC(=O)NC2=O)C3=O)CC1` (centres unmarked) [Control compound 3], the values for the Papp A→B at 90 min in data set [1] (setting [3]), in data set [1] (setting [4]) and in data set [1] (setting [5]) were 2.14 ×10⁻⁶ cm/s, 2.16 ×10⁻⁶ cm/s and 2.15 ×10⁻⁶ cm/s, respectively. The Papp B→A at 90 min amounted to 33.5 ×10⁻⁶ cm/s in data set [1] (setting [3]), 34.8 ×10⁻⁶ cm/s in data set [1] (setting [4]) and 34.1 ×10⁻⁶ cm/s in data set [1] (setting [5]). The efflux ratio at 90 min in data set [1] was 15.9.
In turn, `C=CC(=O)N1CCC[C@@H](n2nc(-c3ccc(Oc4ccccc4)cc3)c3c(N)ncnc32)C1` [Ibrutinib] registered an IC50 in data set [2] (TMD8, 72 h) of 125 nM.
